Measured values published in PubChem BioAssay AID179 (DTP/NCI, 2004).
Calls of active or inactive are those of the source.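 The calls were made as follows: active = compounds giving half or more protection of infected cells from virus-caused growth loss, again on retest; inactive = the rest.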

Tested on: CEM cells HIV-1 protection, formazan growth assay
Test: NCI AIDS Antiviral Assay
Conditions: for IC50: measured here: growth of uninfected CEM cells
Summary of the method: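 Steps: treat uninfected and HIV-1-infected human CEM cells at five drug levels; quantify growth by soluble formazan; retest any compound reaching 50% protection; classify actives from the retest.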

Structure (SMILES)	EC50	IC50	outcome
C=CC(=O)N1CN(C(=O)C=C)CN(C(=O)C=C)C1	> 200 µM	1.15 µM	
O=C(CCCN1CCC2(CC1)OC(=O)N(c1ccccc1)C2=O)c1ccccc1	> 200 µM	> 200 µM	
CCOC(=O)c1cc2c([nH]1)c(OC(C)=O)cc1c2ccn1Cc1ccccc1	> 200 µM	> 200 µM	
CCCCCCCCCCCCCCCC(=O)OCC1OC(OC)C2NP(=O)(N(CCCl)CCCl)OC1C2O (stereo not given)	> 8.51 µM	0.155 µM	
C/C(CC(=O)Nc1ccc(C)cc1C)=N/N=C(N)N	> 191 µM	> 191 µM	
Cn1cnc([N+](=O)[O-])c1Sc1nc2ccccc2[nH]1	> 19.1 µM	6.92 µM	
CSc1nncc2[nH]c(C)nc12	> 200 µM	> 200 µM	
Cc1ccc(S(=O)(=O)Sc2nnnn2-c2ccccc2)cc1	> 15.8 µM	> 15.8 µM	
O=C1NCCCCCCCCNC(=O)c2cccc1c2	> 13.8 µM	> 13.8 µM	
CCOC(=O)C1=C(O)CSC1=Nc1ccc(N=C2SCC(O)=C2C(=O)OCC)cc1			inactive
Cc1cc(-n2c(/C=C/c3ccc(Cl)cc3)nc3cc(Cl)ccc3c2=O)on1	> 50.1 µM	> 50.1 µM	
CCn1c(SC(C)C(=O)c2c(C)n(C)n(-c3ccccc3)c2=O)nc2ccccc2c1=O (stereo not given)	> 112 µM	> 112 µM	
CCOCC(=O)N(C)c1cccc2c3c(n(C)c12)CCCCC3			inactive
Cc1ccc(S(=O)(=O)C2=c3ncccc3=C3C(=O)c4ccccc4C(=O)C32)cc1 (stereo not given)			inactive
[O-]c1c(-c2ccccc2)[se]c(-c2ccccc2)[n+]1-c1ccccc1			inactive
OC(c1ccsc1)c1ccsc1	> 200 µM	> 200 µM	
O=C(CCCN1CCC(O)(c2cccc(C(F)(F)F)c2)CC1)c1ccc(F)cc1	> 302 µM	53.7 µM	
CC(=O)c1cccc(NC(=O)Nc2ncccc2C)c1	182 µM	> 200 µM	
N#C/C(=C/c1cccs1)c1cccs1	> 200 µM	> 200 µM	
CC(=O)OC1(C)C2c3ccccc3C(c3ccccc32)C1(C)C (stereo not given)	> 85.1 µM	> 85.1 µM	
CC1=C(C(=O)Nc2cccc(Cl)c2)C(c2ccccc2F)C(C(=O)Nc2cccc(Cl)c2)=C(C)N1	> 14.1 µM	> 14.1 µM	
O=C(O)/C=C/C=C/C(=O)O	> 200 µM	> 200 µM	
C[C@@H]1[C@H](C)N1CC(O)Cn1ccnc1[N+](=O)[O-] (stereo not given in full)	> 200 µM	> 200 µM	

Structure (SMILES)	EC50	IC50	outcome
CC(C)C1=CC23CCC4C(C)(C(=O)O)CCCC4(C)C2CC1C1C(=O)N(c2ccc(Cc4ccc(N5C(=O)C6C7CC8C9(C)CCCC(C)(C(=O)O)C9CCC8(C=C7C(C)C)C6C5=O)cc4)cc2)C(=O)C13 (stereo not given)	> 35.5 µM	13.8 µM	
O=C(Nc1ccn(CCOC(=O)c2ccccc2)c(=O)n1)c1ccccc1	> 186 µM	> 186 µM	
Cc1[nH]c2c(ccc3c2ccc2c(=O)c(C)c(C)[nH]c23)c(=O)c1C	> 200 µM	138 µM	
COC1(OC)CC2C=C(S(=O)(=O)c3ccccc3)C1N(Cc1ccccc1)C2=O (stereo not given)			inactive
N#CC1=C2Sc3ccccc3N2[C@H](c2ccccc2)[C@H]2COC(=O)[C@@H]12	> 151 µM	38 µM	
Nc1ncnc2c1nnn2C1C=CC(COS(N)(=O)=O)C1 (stereo not given)	> 200 µM	43.7 µM	
COC[C@@H](N=CC(C)(C)C)C(C)C	> 200 µM	> 200 µM	
CC(=O)OC1(C#N)CC2OC1C1NC21 (stereo not given)	> 676 µM	> 676 µM	
Cc1cn(C2CC(S(=O)c3ccccc3)C(CO)O2)c(=O)[nH]c1=O (stereo not given)	> 200 µM	> 200 µM	
COCn1c2ccccc2c2nc(-c3ccncc3)nc(-c3ccncc3)c21	> 3.98 µM	> 3.98 µM	
CN1c2ccccc2S(=O)(=O)n2c(CCc3ccccc3)nnc21	> 105 µM	> 105 µM	
O=C(/C=C/c1ccccc1O)C(c1ccccc1)c1ccccc1	> 12 µM	> 12 µM	
NC(=S)C(=S)N=Cc1c(N)[nH]n(-c2ccccc2)c1=O	> 120 µM	70.8 µM	
CC(/C=N\NC(=S)N(C)C)=N/NC(=S)N(C)C	> 2 µM	0.347 µM	
COc1nc2ccc(CNc3ccc(C(=O)O)cc3)cc2nc1OC	> 200 µM	> 200 µM	
O=Nc1c(-c2ccc(Cl)cc2)nc2ncccn12	> 200 µM	38 µM	
COC(=O)C1=C(C(=O)OC)C2OC1C1C2C2(C)C(C)=C(C)C1(C)S2=O (stereo not given)	> 200 µM	2.82 µM	
CCCCCCCCCCCCCCCCCCCCOC1OC(COC(C)=O)C(OC(C)=O)C(OC(C)=O)C1OC(C)=O (stereo not given)	> 35.5 µM	> 35.5 µM	
C=C1C(=O)OC2/C=C(/CO)C3(O)CC(O)C(C)(CC(OC(=O)/C(C)=C/C)C12)O3 (stereo not given)	> 631 µM	1.17 µM	
CNC(=O)c1cc2nc3ccccc3c(=O)n2c2ccccc12	> 100 µM	> 100 µM	
O=NN1CN2CN(C1)CN(N=O)C2	> 200 µM	30.9 µM	
Oc1ccc(/C=C/c2cc(O)cc3c2[C@@H](c2cc(O)cc4c2[C@H](c2cc(O)cc5c2[C@@H](c2cc(O)cc(O)c2)[C@H](c2ccc(O)cc2)O5)[C@@H](c2ccc(O)cc2)O4)[C@H](c2ccc(O)cc2)O3)cc1	12.3 µM	15.8 µM	
